Laboratory results from the METLIN SMRT retention time set (Domingo-Almenara et al. 2019).

Assay: gradient 5% acetonitrile 3 min, to 50% in 2 min, to 85% in 15 min, held 3 min, 100 µL/min
Details: column: Zorbax Extend-C18 2.1 x 50 mm; eluents: water / acetonitrile, 0.1% formic acid
How it was run: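 Data were gathered over 3 months by HPLC coupled to a quadrupole time-of-flight mass spectrometer, operated in positive and negative ionization mode. Mixtures of ~100 pure standards ran on a Zorbax Extend-C18 column (2.1 × 50 mm, 1.8 μm) at 100 μL/min, with water and acetonitrile each containing 0.1% formic acid and dead and dwell volumes of 40 μL and 900 μL. Retention time was read from adduct peaks picked by computer and checked manually.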

Row | RP-LC retention time [s] | SMILES
1 | 1040 | Cc1ccc(-c2noc(Cc3nnc(-c4ccccc4)o3)n2)cc1
2 | 798 | CCOC(=O)COc1cc(-c2ccc(F)cc2)nc2ccc(NC(=O)c3ccco3)cc12
3 | 860 | Cc1ccc(S(=O)(=O)N2c3ccccc3NC3=C(C(=O)CCC3)C2c2ccco2)cc1C (stereo not given)
4 | 729 | O=C(Nc1ccc2nc3n(c(=O)c2c1)CCCCC3)C(=O)N1CCCCCC1
5 | 682 | CCOc1ccc(-c2nnc(SCC(N)=O)o2)cc1
6 | 809 | CC(CCc1ccccc1)NC(=O)C1CCN(S(=O)(=O)c2ccc3c(c2)CCCC(=O)N3)CC1 (stereo not given)
7 | 744 | COC(=O)c1c(NCCc2c[nH]c3ccccc23)c2ccccc2[nH]c1=O
8 | 724 | COc1ccc(C2Cn3cnc(C(=O)N4CCC(C(=O)NCC(C)C)CC4)c3CO2)cc1 (stereo not given)
9 | 740 | Cc1ccc(S(=O)(=O)N2CCC(CCC(=O)NC3CCS(=O)(=O)C3)CC2)cc1 (stereo not given)
10 | 961 | COc1cccc(CNC(=O)C2(C)CCCN(C(=O)Nc3cc(C)cc(C)c3)C2)c1 (stereo not given)
11 | 776 | CCOC(=O)c1cnn2c(SC)ncnc12
12 | 905 | COCCCNS(=O)(=O)c1ccccc1-c1nc(-c2ccc(F)cc2)no1
13 | 864 | O=C(Cc1csc2nc(-c3ccccc3)cn12)NCCC1=CCCCC1
14 | 558 | CCCN(CCC)CCCNC(=O)C1=C(C)C(=O)OC12CCN(Cc1ccccc1)CC2
15 | 561 | CNC(=O)c1cc(C)nc2ccc(C)cc12
16 | 971 | CCc1ccccc1NC(=O)c1sc(-c2cn(C)c3ncccc23)nc1C
17 | 778 | CCc1cc(C(=O)NCc2ccc(C)o2)nc2cc(-c3ccccn3)nn12
18 | 1180 | CSc1ccccc1NC(=O)c1nnn(-c2cc(Cl)ccc2C)c1C
19 | 730 | Cc1nc(C)c2c(n1)N(CC1CCCCC1)C(=O)CC2
20 | 1020 | CC(C)Cn1cc(S(=O)(=O)NCc2cccc(Cl)c2)c2cccnc21
21 | 912 | CCc1ccccc1NC(=O)C1CCN(S(C)(=O)=O)c2ccccc2O1 (stereo not given)
22 | 866 | Cc1ccc(NC(=O)NCCCn2c(C(F)(F)F)nc3cccnc32)cc1F
23 | 781 | CCOC(=O)N1CCC2(CC1)N=C(c1ccc(Cl)cc1)CC(c1cccc(OC)c1O)N2 (stereo not given)

Row | RP-LC retention time [s] | SMILES
24 | 924 | CCC1Oc2ccc(S(=O)(=O)N3CCC(C(=O)N(CC)Cc4ccccc4)CC3)cc2NC1=O (stereo not given)
25 | 990 | COc1ccc2[nH]cc(CCn3ccc4c(cnc5nc(-c6ccc(Cl)cc6)nn54)c3=O)c2c1
26 | 887 | CCn1c(=O)c(C(=O)NC2CC2)nc2cc(C)c(C)cc21
27 | 1130 | O=C(c1nnc(-c2ccc(S(=O)(=O)N3CCCCC3)cc2)o1)N1CCN(c2ccccc2F)CC1
28 | 734 | Cc1oc(-c2[nH]ncc2C(=O)N2CCCC2)cc1S(=O)(=O)Nc1ccc(F)c(F)c1
29 | 736 | Cc1ccc(CNC(=O)C(C)n2nc(C)c3c(C)n(-c4ccccc4)nc3c2=O)o1 (stereo not given)
30 | 548 | CC(C)CN1C(=O)c2cccn2CC1C(=O)NCCCN1CCN(C)CC1 (stereo not given)
31 | 610 | NC(=O)COc1cc(-c2ccccc2)nc2ccc(NC(=O)C3CC3)cc12
32 | 619 | CC(=O)N1c2ccc(S(=O)(=O)N3CCCC3)cc2CC1C(=O)NCCN(C)Cc1ccccc1 (stereo not given)
33 | 843 | CCc1nc(-c2cc(S(=O)(=O)NCC(=O)NC3CCCC3)c(C)s2)no1
34 | 676 | Cc1cc(C)c(S(=O)(=O)Nc2ccc(CC(=O)N3CCC(O)CC3)cc2)c(C)c1
35 | 962 | CCc1ccccc1NC(=O)N(C)CCc1noc(COc2ccccc2)n1
36 | 777 | CCCN1CCn2cc(S(=O)(=O)Nc3cccc(C)c3)cc2C1=O
37 | 560 | COC(=O)c1ccc(CN2CCC(c3nnc(C(F)(F)F)o3)CC2)o1
38 | 594 | CNC(=O)[C@@H]1CN(C(=O)Cn2c(=O)oc3ccccc32)C[C@H]1COC
39 | 761 | Cc1ccc(NC(=O)CN2C(=O)CCS(=O)(=O)c3ccccc32)cc1
40 | 767 | CCNC(=O)C1CCN(S(=O)(=O)c2cc(-c3noc(CC)n3)cs2)CC1
41 | 1240 | CC(C)Cn1c(=O)c2ccccc2n(Cc2nc(-c3ccc(Cl)cc3)no2)c1=O
42 | 766 | COc1ccc(CN2CN=C(Nc3nc(C)c4cc(C)ccc4n3)NC2)cc1
43 | 875 | Cc1csc(-c2cc(S(=O)(=O)N3CCCC3)cn2CC(=O)N2CCCCC2)n1
44 | 798 | CCOC(=O)Nc1ccc2nc(N3CCCCCC3)sc2c1
45 | 721 | COc1cc(NC(=O)c2cc(C(C)(C)C)n3nccc3n2)cc(OC)c1
46 | 720 | Cc1ccc(NC(=O)NCC(c2cccnc2)c2cn(C)c3ccccc23)c(C)c1 (stereo not given)

Row | RP-LC retention time [s] | SMILES
47 | 802 | CC(=O)Nc1ccc(C2(C(=O)NCc3ccccc3Cl)CCC2)cc1
48 | 826 | CN(Cc1ccco1)C(=O)CC1CCN(C(=O)c2cc3ccccc3[nH]2)CC1
49 | 638 | Cc1ccc(-c2nc3nc(C)cc(N(C)CCO)n3n2)cc1
50 | 534 | O=C(NCc1cccnc1)c1cc(N2CCCC2)n2nccc2n1
51 | 595 | CC1(c2nc(C3CC3)no2)CCCN(C(=O)c2ccc3nc[nH]c3c2)C1 (stereo not given)
52 | 635 | Cc1nc2cccnc2n1C1CCN(C(=O)Nc2ccccc2Cl)CC1
53 | 770 | CC1CCN(C(=O)Cc2nnc3cc(-c4nc(C(C)C)no4)ccn23)CC1
54 | 835 | CCN(CC)c1ccc(C(=O)O)cc1NC(=O)c1cccs1
55 | 583 | COc1cccc(CN2CCC3(CC2)NCCc2c3[nH]c3ccccc23)c1
56 | 1150 | CCCn1nc(-c2nc(-c3cccc(Cl)c3)no2)ccc1=O
57 | 628 | O=C(Cn1nc(-c2ccco2)ccc1=O)NCc1ccco1
58 | 903 | CCc1nn2c(CNC(=O)c3ccccc3Br)c(-c3ccccc3)nc2s1
59 | 627 | Nc1nc(Nc2ccc(F)cc2)nc2cccc(F)c12
60 | 963 | CCn1nnc2ccc(-c3noc(-c4ccc(OC)c(OC)c4)n3)cc21
61 | 567 | Cc1cc(N2CCCC2)n2ncnc2n1
62 | 897 | Cc1cc2c(cc(C(=O)N3CCC(C(=O)N4CCCC4)CC3)n2Cc2c(F)cccc2Cl)o1
63 | 822 | CCOc1ccc2nc(C(=O)NC3CCCC3)cn2n1
64 | 1230 | Cc1noc(C)c1S(=O)(=O)Nc1cccc(-c2nc(-c3cccc(Br)c3)co2)c1
65 | 951 | Cc1ccc(-c2noc(Cn3ccn(Cc4ccc(Cl)cc4)c(=O)c3=O)n2)cc1
66 | 608 | Cc1ccc(N2CCC(C(=O)Nc3ccc4c(c3)Cc3ccccc3-4)CC2)nn1
67 | 594 | CCCC(CCC)C(=O)NCCS(=O)(=O)N1CCN(c2ccccn2)CC1
68 | 1160 | Cc1cc(C)n(C(=O)COc2ccc(Cl)cc2C)n1
69 | 600 | Cn1ncc2c(N3CCSCC3)nc(C(=O)N3CCN(Cc4ccccc4)CC3)nc21

Row | RP-LC retention time [s] | SMILES
70 | 595 | O=S(=O)(c1c(Cl)cccc1Cl)N1CCN(Cc2ccc3c(c2)OCO3)CC1
71 | 800 | O=C(Nc1ccccc1)c1ccc2c(cnn2CC(=O)N2CCCCCC2)c1
72 | 833 | CN(Cc1cccs1)C(=O)Nc1ccccc1
73 | 649 | CNC(=O)C1CCCN(c2nc3ncn(CC(=O)Nc4ccccc4C(=O)OC)c(=O)c3s2)C1 (stereo not given)
74 | 808 | CCc1ccc(S(=O)(=O)N2CC(F)(F)C[C@H]2CN2CCc3ccccc3C2)cc1
75 | 881 | COc1ccc(NC(=O)Nc2cccc(-c3nccnc3N3CCCC3)c2)c(OC)c1
76 | 1040 | COc1cccc(CCC(=O)N2CCc3cc(-c4csc(C)n4)ccc32)c1
77 | 683 | Cc1cc(C(=O)N2CCOCC2)nn1CC(=O)Nc1nc2ccccc2s1
78 | 1080 | O=C1CC(c2noc(-c3cccc(F)c3)n2)CN1c1ccc(Cl)cc1 (stereo not given)
79 | 729 | Cc1ccc(S(=O)(=O)Nc2cc(-c3cn4cccc(C)c4n3)ccc2C)cc1C
80 | 604 | COC(=O)c1ccc(NC(=O)CN2CCc3[nH]c4c(C)ccc(F)c4c(=O)c3C2)cc1
81 | 679 | C=CCNC(=O)C1CCN(C(=O)Nc2ccc(NC(=O)Nc3ccccc3)cc2)CC1
82 | 1110 | O=C(Cn1cccc1-c1nc(-c2ccccc2)no1)N1CCc2ccccc21
83 | 674 | Cc1nn(C)cc1C(=O)N(Cc1ccccc1)c1ccccn1
84 | 723 | O=C(CCCN1C(=O)c2cccc3cccc(c23)C1=O)N1CCN(c2ncccn2)CC1
85 | 978 | Cc1ccc(-n2cc(C(=O)Oc3cccnc3)c3ccccc3c2=O)cc1
86 | 612 | Cn1c(NC(=O)c2ccc(S(=O)(=O)N3CCOCC3)cc2)cc(=O)n(C)c1=O
87 | 1110 | O=S(=O)(c1ccc(F)cc1F)N1CCc2nc(-c3ccc(F)cc3)ncc2C1
88 | 851 | O=C(Cn1nc2c(cc1=O)CCCC2)Nc1nc(-c2ccc3c(c2)OCO3)cs1
89 | 875 | CCOC(=O)C1CCN([C@H]2CS(=O)(=O)C[C@@H]2S(=O)(=O)c2ccc(C)cc2)CC1
90 | 721 | Cc1ccc(-n2nc(C)c(S(=O)(=O)N3CCN(c4ccccn4)CC3)c2C)cc1
